Laboratory results as given in PubChem BioAssay (NCI).
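Five compound concentrations were applied to cells in 96-well plates for 48 hours; endpoints were derived by simple linear interpolation of the resulting dose-response curve. At the GI50, growth is halved. TGI: concentration producing complete growth inhibition.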

How the values were obtained:
Assay in all cases: NCI-60 cell line screen, 48 h
DU-145 prostate = tested on: DU-145 prostate
HS 578T breast = tested on: HS 578T breast
MCF7 breast = tested on: MCF7 breast
MDA-MB-435 = tested on: MDA-MB-435
MDA-N = tested on: MDA-N

Compound | TGI (DU-145 prostate) | TGI (HS 578T breast) | TGI (MCF7 breast) | TGI (MDA-MB-435) | TGI (MDA-N) | GI50 (DU-145 prostate) | GI50 (HS 578T breast) | GI50 (MCF7 breast) | GI50 (MDA-MB-435) | GI50 (MDA-N)
CN1CCc2nc(N)nc(-c3nc(N)nc4c3CN(C)CC4)c2C1 | > 100 µM | > 100 µM | > 100 µM | > 100 µM | > 100 µM | – | – | – | – | –
O=C1c2cccnc2-c2nc(-c3ccc(Cl)cc3)cc3c2c1nc1ccccc13 | > 100 µM | > 100 µM | 75.4 µM | 86.4 µM | > 100 µM | 75.4 µM | 29 µM | 18.8 µM | 22.5 µM | 40 µM
CCc1nc(N)nc(N)c1-c1ccc(NC)c([N+](=O)[O-])c1 | > 100 µM | > 100 µM | > 87.3 µM | > 100 µM | > 100 µM | – | – | – | – | –
OCC1OC(n2cnc3c2NC=NC[C@H]3O)C(Cl)C1O (some centres not stated) | > 100 µM | > 100 µM | > 100 µM | > 100 µM | > 100 µM | – | – | – | – | –
Cc1cc2nc(C=C(C(F)(F)F)C(F)(F)F)oc2cc1C | > 10 µM | 8.84 µM | > 10 µM | 4.21 µM | > 10 µM | – | – | – | – | –
COc1c2c(cc3c1OCO3)[C@]13C=C[C@H](OC)C[C@H]1N(C2)CC3O (some centres not stated) | > 100 µM | > 100 µM | > 100 µM | > 100 µM | > 100 µM | – | – | – | – | –
O=c1cc(NCC(O)CN2CCCC2)n(Cc2ccccc2)c(=O)n1Cc1ccccc1 (configuration not stated) | > 100 µM | > 100 µM | 34.8 µM | 65.8 µM | – | 87 µM | 37 µM | 19.1 µM | 26.7 µM | –
COc1cc2ncnc(-n3ncc4cc(NC(=O)Nc5ccccc5)ccc43)c2cc1OC | 11.4 µM | 3.37 µM | 1.9 µM | 33.9 µM | – | 0.867 µM | 0.299 µM | 0.234 µM | 1.4 µM | –
C/C(=N\Nc1ccc(Cl)cn1)c1ccc2ccccc2n1 | > 100 µM | > 100 µM | > 100 µM | > 100 µM | – | 4.03 µM | 4.78 µM | 2.85 µM | 4.45 µM | –
CCCCC(CC)COC(=O)C[N+](C)(C)CCOC(c1ccccc1)c1ccccc1 (configuration not stated) | 18 µM | 6.68 µM | 4.34 µM | 3.09 µM | – | 5.53 µM | 2.08 µM | 1.99 µM | 1.71 µM | –
c1ccc(Sc2ccc(Cc3nc4cc5ccccc5cc4[nH]3)cc2)cc1 | > 100 µM | 91.5 µM | > 100 µM | > 67.7 µM | – | 23 µM | 17.7 µM | 6.73 µM | 11.9 µM | –
Cc1ccc(N=C/C=C(\Nc2ccc(C)cc2)c2ccc(Cl)cc2)cc1 | 38.4 µM | 41.7 µM | 69.6 µM | 12 µM | – | 15.6 µM | 15.3 µM | 5.77 µM | 2.82 µM | –
COc1cc2c3c(n(CCCN)c(=O)c2cc1OC)-c1ccc(C#N)cc1C3=O | 25.5 µM | 41.5 µM | 40.1 µM | 39.9 µM | – | 12.3 µM | 18 µM | 8.36 µM | 18.6 µM | –
CN1CCN(CCCNc2nc3ccc(Oc4ccc(NC(=O)Nc5cc(C(F)(F)F)ccc5F)cc4)cc3[nH]2)CC1 | 12.5 µM | 8.26 µM | 7.61 µM | 7.78 µM | – | 5.17 µM | 3.67 µM | 4.05 µM | 4.1 µM | –
NS(=O)(=O)c1ccc(-c2ccc3c(NC(=O)C4CC4)n[nH]c3c2)cc1 | > 25 µM | > 25 µM | > 25 µM | > 25 µM | – | > 25 µM | > 25 µM | > 25 µM | > 25 µM | –
CN(C)CCNc1ccc(CO)c2oc3ccc(O)cc3c(=O)c12 | 53.9 µM | 33.4 µM | 58.1 µM | 27.1 µM | 25.7 µM | – | – | – | – | –
CC1=C(/C=C/Cl)CC(Cl)C(C)(Cl)C1 (configuration not stated) | > 100 µM | > 100 µM | > 100 µM | > 100 µM | > 100 µM | – | – | – | – | –
COc1ccc(-c2[nH]c3ccc(OC)cc3c2/C=C(\C#N)S(=O)(=O)c2ccccc2)cc1 | > 31.4 µM | 7.25 µM | > 100 µM | > 100 µM | – | 0.785 µM | 0.531 µM | 0.774 µM | 0.272 µM | –
Nc1nc(Nc2cccnc2)sc1C(=O)c1ccccc1F | > 100 µM | 10.8 µM | 8.41 µM | 24.3 µM | – | 3.38 µM | 3.02 µM | 1.94 µM | 3.74 µM | –
CCc1nc2cc(F)c(/C=C/C(=O)NO)cc2c(=O)n1CCc1ccccc1 | 10.5 µM | 26.9 µM | > 100 µM | 11.5 µM | – | 0.358 µM | 0.489 µM | 0.302 µM | 0.445 µM | –
N#Cc1cc(-c2cc3ccccc3o2)oc1N | 28.9 µM | 3.41 µM | 15.3 µM | 16.9 µM | – | 4.4 µM | 0.401 µM | 2.66 µM | 3.69 µM | –
Cc1ccc(NC(=O)c2cccc(C(C)(C)C#N)c2)cc1Nc1ccc2ncn(C)c(=O)c2c1 | > 100 µM | > 100 µM | > 100 µM | > 100 µM | – | 5.66 µM | 8.65 µM | 4.4 µM | 0.0625 µM | –
